{
  "source": "PubChem BioAssay AID1259411",
  "about": "(Chemical Carcinogenesis Research Information System (CCRIS), 2018)",
  "system": "rodent carcinogenicity bioassays, tumor incidence",
  "assay": "CCRIS carcinogenicity studies",
  "procedure,_shortened": "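NCI-built, expert-reviewed records of carcinogenicity and related test outcomes (mutagenicity, tumor promotion/inhibition) compiled from published and report sources, historical span 1985-2011, not updated.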",
  "note": "Calls of active or inactive are those of the source. The rule behind the calls is not given here.",
  "data": [
    {"smiles": "Nc1ccc(Oc2ccc(N)cc2)cc1", "values": [
      {"measurement": "carcinogen call", "setting": "Species: MOUSE, Strain/Sex: B6C3F1/FEMALE, Route: ORAL, Dose: 0, 0.015, 0.03, 0.08% IN DIET FOR 103 WK (STUDY DURATION: 104 WK), Dose: 0, 0.015, 0.03, 0.08% IN DIET FOR 103 WK (STUDY DURATION: 104 WK), Tumor Site: Type of Lesion: THYROID GLAND: FOLLICULAR ADENOMA, LIVER: ADENOMA, LIVER: HEPATOCELLULAR CARCINOMA, HARDERIAN GLAND: ADENOMA, Tumor Site: Type of Lesion: THYROID GLAND: FOLLICULAR ADENOMA, LIVER: ADENOMA, LIVER: HEPATOCELLULAR CARCINOMA, HARDERIAN GLAND: ADENOMA", "result": "active; positive"},
      {"measurement": "carcinogen call", "setting": "Species: MOUSE, Strain/Sex: B6C3F1/FEMALE, Route: ORAL, Dose: 0, 150, 300, 800 PPM IN DIET, Dose: 0, 150, 300, 800 PPM IN DIET, Tumor Site: Type of Lesion: LIVER: HEPATOCELLULAR ADENOMA OR CARCINOMA, THYROID GLAND: FOLLICULAR CELL ADENOMA, HARDERIAN GLAND: ADENOMA, NOS, Tumor Site: Type of Lesion: LIVER: HEPATOCELLULAR ADENOMA OR CARCINOMA, THYROID GLAND: FOLLICULAR CELL ADENOMA, HARDERIAN GLAND: ADENOMA, NOS", "result": "active; positive"},
      {"measurement": "carcinogen call", "setting": "Species: MOUSE, Strain/Sex: B6C3F1/MALE, Route: ORAL, Dose: 0, 0.015, 0.03, 0.08% IN DIET FOR 103 WK (STUDY DURATION: 104 WK), Dose: 0, 0.015, 0.03, 0.08% IN DIET FOR 103 WK (STUDY DURATION: 104 WK), Tumor Site: Type of Lesion: THYROID GLAND: FOLLICULAR HYPERPLASIA, HARDERIAN GLAND: ADENOMA", "result": "active; positive"},
      {"measurement": "carcinogen call", "setting": "Species: MOUSE, Strain/Sex: B6C3F1/MALE, Route: ORAL, Dose: 0, 150, 300, 800 PPM IN DIET, Dose: 0, 150, 300, 800 PPM IN DIET, Tumor Site: Type of Lesion: LIVER: HEPATOCELLULAR ADENOMA OR CARCINOMA, HARDERIAN GLAND: ADENOMA, NOS", "result": "active; positive"},
      {"measurement": "carcinogen call", "setting": "Species: RAT, Route: SUBCUTANEOUS, Tumor Site: Type of Lesion: LIVER", "result": "active; positive"},
      {"measurement": "carcinogen call", "setting": "Species: RAT, Strain/Sex: F344/FEMALE, Route: ORAL, Dose: 0, 0.02, 0.04, 0.05% IN DIET FOR 103 WK (STUDY DURATION: 104 WK), Dose: 0, 0.02, 0.04, 0.05% IN DIET FOR 103 WK (STUDY DURATION: 104 WK), Tumor Site: Type of Lesion: THYROID GLAND: FOLLICULAR CARCINOMA, THYROID GLAND: FOLLICULAR ADENOMA, LIVER: NEOPLASTIC NODULE, LIVER: HEPATOCELLULAR, Tumor Site: Type of Lesion: THYROID GLAND: FOLLICULAR CARCINOMA, THYROID GLAND: FOLLICULAR ADENOMA, LIVER: NEOPLASTIC NODULE, LIVER: HEPATOCELLULAR", "result": "active; positive"},
      {"measurement": "carcinogen call", "setting": "Species: RAT, Strain/Sex: F344/FEMALE, Route: ORAL, Dose: 0, 200, 400, 500 PPM IN DIET, Dose: 0, 200, 400, 500 PPM IN DIET, Tumor Site: Type of Lesion: LIVER: HEPATOCELLULAR CARCINOMA OR NEOPLASTIC NODULE, THYROID GLAND: FOLLICULAR CELL ADENOMA OR CARCINOMA", "result": "active; positive"},
      {"measurement": "carcinogen call", "setting": "Species: RAT, Strain/Sex: F344/MALE, Route: ORAL, Dose: 0, 0.02, 0.04, 0.05% IN DIET FOR 103 WK (STUDY DURATION: 104 WK), Dose: 0, 0.02, 0.04, 0.05% IN DIET FOR 103 WK (STUDY DURATION: 104 WK), Tumor Site: Type of Lesion: THYROID GLAND: FOLLICULAR CARCINOMA, THYROID GLAND: FOLLICULAR ADENOMA, LIVER: NEOPLASTIC NODULE, LIVER: HEPATOCELLULAR, Tumor Site: Type of Lesion: THYROID GLAND: FOLLICULAR CARCINOMA, THYROID GLAND: FOLLICULAR ADENOMA, LIVER: NEOPLASTIC NODULE, LIVER: HEPATOCELLULAR", "result": "active; positive"},
      {"measurement": "carcinogen call", "setting": "Species: RAT, Strain/Sex: F344/MALE, Route: ORAL, Dose: 0, 200, 400, 500 PPM IN DIET, Dose: 0, 200, 400, 500 PPM IN DIET, Tumor Site: Type of Lesion: LIVER: HEPATOCELLULAR CARCINOMA OR NEOPLASTIC NODULE, THYROID GLAND: FOLLICULAR CELL ADENOMA OR CARCINOMA", "result": "active; positive"}
    ]},
    {"smiles": "COc1cccc2c1C(=O)c1c(O)c3c(c(O)c1C2=O)C[C@@](O)(C(=O)CO)C[C@@H]3O[C@H]1C[C@H](N)[C@H](O)[C@H](C)O1", "values": [
      {"measurement": "carcinogen call", "setting": "Species: RAT, Strain/Sex: SPRAGUE-DAWLEY/FEMALE, Route: INTRAVENOUS, Dose: 0, 5, 10 MG/KG IN SALINE SOLUTION ONCE (STUDY DURATION: 1 YR), Dose: 0, 5, 10 MG/KG IN SALINE SOLUTION ONCE (STUDY DURATION: 1 YR), Tumor Site: Type of Lesion: MAMMARY GLAND: FIBROADENOMA, ADENOCARCINOMA", "result": "active; positive"},
      {"measurement": "carcinogen call", "setting": "Species: RAT, Strain/Sex: SPRAGUE-DAWLEY/MALE, Route: INTRAVENOUS, Dose: 0, 5, 10 MG/KG IN SALINE SOLUTION ONCE (STUDY DURATION: 1 YR), Dose: 0, 5, 10 MG/KG IN SALINE SOLUTION ONCE (STUDY DURATION: 1 YR), Tumor Site: Type of Lesion: MAMMARY GLAND: ADENOCARCINOMA", "result": "active; positive"}
    ]},
    {"smiles": "Cc1ccc(S(=O)(=O)NC(=O)NN2CCCCCC2)cc1", "values": [
      {"measurement": "carcinogen call", "setting": "Species: MOUSE, Strain/Sex: B6C3F1/FEMALE, Route: ORAL, Dose: 0, 5000, 10000 PPM IN DIET, Dose: 0, 5000, 10000 PPM IN DIET", "result": "inactive; negative"},
      {"measurement": "carcinogen call", "setting": "Species: MOUSE, Strain/Sex: B6C3F1/MALE, Route: ORAL, Dose: 0, 5000, 10000 PPM IN DIET, Dose: 0, 5000, 10000 PPM IN DIET", "result": "inactive; negative"},
      {"measurement": "carcinogen call", "setting": "Species: RAT, Strain/Sex: F344/FEMALE, Route: ORAL, Dose: 0, 5000, 10000 PPM IN DIET, Dose: 0, 5000, 10000 PPM IN DIET", "result": "inactive; negative"},
      {"measurement": "carcinogen call", "setting": "Species: RAT, Strain/Sex: F344/MALE, Route: ORAL, Dose: 0, 5000, 10000 PPM IN DIET, Dose: 0, 5000, 10000 PPM IN DIET", "result": "inactive; negative"}
    ]},
    {"smiles": "Cc1cccc2c(C)c3c(ccc4ccccc43)c(C)c12", "values": [
      {"measurement": "carcinogen call", "setting": "Species: MOUSE, Strain/Sex: C57BL/MALE,FEMALE, Route: DERMAL, Tumor Site: Type of Lesion: INTEGUMENTARY SYSTEM (SKIN): PAPILLOMA, EPITHELIOMA, SARCOMA", "result": "active; positive"},
      {"measurement": "carcinogen call", "setting": "Species: MOUSE, Strain/Sex: DBA/MALE,FEMALE, Route: DERMAL, Tumor Site: Type of Lesion: INTEGUMENTARY SYSTEM (SKIN): PAPILLOMA, EPITHELIOMA, SARCOMA", "result": "active; positive"},
      {"measurement": "carcinogen call", "setting": "Species: MOUSE, Strain/Sex: DBF1/MALE,FEMALE, Route: DERMAL, Tumor Site: Type of Lesion: INTEGUMENTARY SYSTEM (SKIN): PAPILLOMA, EPITHELIOMA, SARCOMA", "result": "active; positive"},
      {"measurement": "carcinogen call", "setting": "Species: RAT, Strain/Sex: LONG-EVANS/FEMALE, Route: INTRAVENOUS, Dose: 35 MG/KG, 0.5% IN DMSO DILUTED WITH COTTONSEED OIL-WATER EMULSION, 1/2 WK OR 1/10 D FOR 3-5 DOSES, Tumor Site: Type of Lesion: HEMATOPOIETIC SYSTEM (LEUKEMIA)", "result": "active; positive"},
      {"measurement": "carcinogen call", "setting": "Species: RAT, Strain/Sex: LONG-EVANS/MALE, Route: INTRAMUSCULAR, Dose: 2.5 MG IN 0.5 ML SESAME OIL ONCE, Tumor Site: Type of Lesion: INJECTION SITE: SARCOMA", "result": "active; positive"},
      {"measurement": "carcinogen call", "setting": "Species: RAT, Strain/Sex: LONG-EVANS/MALE, Route: INTRAVENOUS, Dose: 35 MG/KG, 0.5% IN DMSO DILUTED WITH COTTONSEED OIL-WATER EMULSION, 1/2 WK FOR 4 DOSES, Tumor Site: Type of Lesion: HEMATOPOIETIC SYSTEM (LEUKEMIA)", "result": "active; positive"}
    ]},
    {"smiles": "Cc1cc(-c2ccc(N)c(C)c2)ccc1N", "values": [
      {"measurement": "carcinogen call", "setting": "Species: MOUSE, Strain/Sex: BALB/FEMALE, Route: ORAL, Dose: 0, 5, 9, 18, 35, 70, 140 PPM IN DRINKING WATER 7 D/WK FOR DURATION OF STUDY (STUDY DURATION: 112 WK), Dose: 0, 5, 9, 18, 35, 70, 140 PPM IN DRINKING WATER 7 D/WK FOR DURATION OF STUDY (STUDY DURATION: 112 WK)", "result": "inactive; negative"},
      {"measurement": "carcinogen call", "setting": "Species: MOUSE, Strain/Sex: BALB/MALE, Route: ORAL, Dose: 0, 5, 9, 18, 35, 70, 140 PPM IN DRINKING WATER 7 D/WK FOR DURATION OF STUDY (STUDY DURATION: 112 WK), Dose: 0, 5, 9, 18, 35, 70, 140 PPM IN DRINKING WATER 7 D/WK FOR DURATION OF STUDY (STUDY DURATION: 112 WK), Tumor Site: Type of Lesion: LUNG: ALVEOLAR CELL ADENOMA AND ADENOCARCINOMA", "result": "active; positive"},
      {"measurement": "carcinogen call", "setting": "Species: RAT, Route: SUBCUTANEOUS, Tumor Site: Type of Lesion: EAR (ZYMBAL GLAND)", "result": "active; positive"},
      {"measurement": "carcinogen call", "setting": "Species: RAT, Strain/Sex: F344/FEMALE, Route: ORAL, Dose: 0, 30, 70, 150 PPM IN DRINKING WATER 7 D/WK FOR 60-61 WK (STUDY DURATION: 60-61 WK), Dose: 0, 30, 70, 150 PPM IN DRINKING WATER 7 D/WK FOR 60-61 WK (STUDY DURATION: 60-61 WK)", "result": "active; positive"},
      {"measurement": "carcinogen call", "setting": "Species: RAT, Strain/Sex: F344/MALE, Route: ORAL, Dose: 0, 30, 70, 150 PPM IN DRINKING WATER 7 D/WK FOR 60-61 WK (STUDY DURATION: 60-61 WK), Dose: 0, 30, 70, 150 PPM IN DRINKING WATER 7 D/WK FOR 60-61 WK (STUDY DURATION: 60-61 WK), Tumor Site: Type of Lesion: PREPUTIAL GLAND: ADENOMA, ADENOMA OR CARCINOMA, LARGE INTESTINE: ADENOMATOUS POLYP, ADENOCARCINOMA, SMALL INTESTINE: ADE, Tumor Site: Type of Lesion: PREPUTIAL GLAND: ADENOMA, ADENOMA OR CARCINOMA, LARGE INTESTINE: ADENOMATOUS POLYP, ADENOCARCINOMA, SMALL INTESTINE: ADE", "result": "active; positive"}
    ]}
  ]
}
